This note sets out measurements from patent publication US8278359B2, “Compositions containing amines and use thereof to treat acne or reduce the appearance of oil or pores on the skin” (Johnson & Johnson Consumer Companies, Inc., priority 2005, dated 2012).

Marks after values point to notes of the source that are not given here.

For one assay, the system named is IL-2 (Interleukin-2). In words: PHA-stimulated peripheral blood lymphocyte cytokine release: IL-2. Type of assay: cell-based. Conditions: Homo sapiens, 48 h, read-out: IL-2 % inh. From the text: The ability of various amines to affect the inflammatory responses was illustrated by its ability to reduce the production of cytokines by human lymphocytes stimulated with the T-cell receptor (TCR) activating agent phytohaemagglutinin (PHA) in the following assay.
Human leukocytes were collected from a healthy adult […] via leukopheresis, and adjusted to a density Of 1×10^6 cells/mL in serum free lymphocyte growth medium (ExVivo-15, Biowhittaker, Walkersville, Md.). PBLs were stimulated with 10 μg/mL PHA in the presence or absence of test samples following published methods (Hamamoto Y., et al. Exp Dermatol 2:231-235, 1993). The following compounds were evaluated N,N,N′,N′-Tetrakis(2-hydroxypropyl)ethylenediamine (THPED, available from BASF under the tradename “Quadrol” or “Neutrol”), N,N,N,N-Tetramethylethylenediamine (TEMED, available from Pfaltz & Bauer Chemicals (Waterbury, Conn.)), and Diethylenetriamine (available from Sigma-Aldrich) Following a 48 hour incubation at 37° C. with 5% CO2, the supernatant was removed and evaluated for cytokine content using commercially available multiplex cytokine detection kit.

For assay [1], the system named is human facial skin biopsy punches rich in sebaceous glands. As to the kind of experiment: Sebum lipid accumulation in facial skin biopsy punches (C14-acetate, HPTLC). As to conditions: 25 um; two experiments, two donors. It is filed as cell-based. From the text: The ability of THPED to selectively affect the content of squalene present in human sebum without affecting other components of sebum was illustrated by its ability to selectively reduce the content of squalene present in human skin using the following assay.
The Methods used are as described previously by Pappas et al. (J Invest Dermatol. 2002 January; 118(1):164-171). In summary, samples of facial skin (otherwise to be discarded) were obtained from female patients 45-65 years of age. The subjects were healthy females without a history of retinoid or laser treatment or chemotherapy. The specimens were obtained from facial lift surgery within 5 hours from the end of the surgery. Two mm biopsy punches were taken from tissues rich in sebaceous glands and cultured in serum free medium. […]
The lipid components extracted from the explanted glands were analyzed by chromatographic separation on 10×20 cm Whatman HPTLC Silica G plates that had been previously charged with chloroform, heated in a vacuum oven at 105° C. for 30 min and cooled to room temperature in a dessicator. […]

A further assay concerns facial skin pores. As to the kind of experiment: Clinical study: reduction of pore size on facial skin, parallel-polarized image analysis. Type of assay: in vivo, human. As to conditions: composition containing 2.5% THPED, 45 minutes. An excerpt:
A composition containing 2.5% THPED was compared to a corresponding placebo composition for the reduction of pore size on facial skin. 31 subjects were enrolled in the study, with all of the subjects completing the protocol. Table XVII discloses the formulation of the two compositions.
About 0.45-0.52 g of each composition was applied on one side of the face for each subject and allowed to dry. Each composition was applied only once to the area for the duration of this study. At baseline and 45 minutes after composition application, parallel-polarized digital images were taken of the entire face to document changes observed in pore size. Pore Size Reduction was evaluated using computer analysis of Parallel-Polarized images of the face.

For a further assay, the system named is IL-1A. As to the kind of experiment: UV-induced IL-1A release on reconstituted epidermis (EPI 200 HCF epidermal equivalents). It is filed as cell-based, human. As to conditions: 0.5% w/v topical. The procedure:
The effect of diamines was evaluated for topical anti-inflammatory activity on human epidermal equivalents. Epidermal equivalents (EPI 200 HCF), multilayer and differentiated epidermis consisting of normal, human epidermal keratinocytes, were purchased from MatTek (Ashland, Mass.). Upon receipt, epidermal equivalents were incubated for 24 hours at 37° C. in maintenance medium without hydrocortisone. Equivalents were topically treated (2 mg/cm^2) with compounds in 70% ethanol/30% propylene glycol vehicle at the indicated concentration 2 hours before exposure to solar ultraviolet light (1000 W-Oriel solar simulator equipped with a 1-mm Schott WG 320 filter; UV dose applied: 70 kJ/m^2 as measured at 360 nm). Equivalents were incubated for 24 hours at 37° C. with maintenance medium then supernatants were analyzed for IL-1A cytokine release using commercially available kits (Upstate Biotechnology, Charlottesville, Va.).

In a further assay the test system is Human keratinocytes. In words: Visual contraction of keratinocytes by real time microscopy (cell area). It is filed as cell-based. As to conditions: 0.1%. As to the method: Human keratinocytes and Epilife culture media (Cascade Biologics, Portland, Oreg.) were cultured at 37° C. in a humidified atmospheres of 5% CO2/95% air. Glass Cover Slides (Applied Biophysics, Troy, N.Y.) were coated with 0.01 mg/ml Laminin V (Sigma Aldirch, St Louis, Mo.) in sterile Phosphate Buffered Saline (Gibco Life Sciences, San Diego, Calif.). Human keratinocytes were prepared at a density of 0.125×10^6 cells/mL in Epilife culture media. Human keratinocytes were plated at 3.75×10^4 cells/well on a 6 well plate containing Laminin coated coverslips and cultured at 37° C. in a humidified atmospheres of 5% […] for 48 hrs. Individual coverslips were transferred to a open bath imaging chamber (Warner Instruments, Hamden, Conn.) mounted on a Leica inverted microscope (Leitz DM1L) with an attached CCD camera. Cells were perfused with Hank's Buffered Salt Solution (HBSS; Gibco Life Sciences, San Diego, Calif.) at flow rate of 1 ml/min using a peristaltic pump (Cole Parmer, Vernon Hills, Ill.). […] Cell area was determined using Scion Image software (Version 4.0.2), and reductions in cell area were reported as the ratio of cell area after treatment to cell area prior to treatment

For `CC(O)CN(CCN(CC(C)O)CC(C)O)CC(C)O` (centres unmarked) [THPED, N,N,N′,N′-Tetrakis(2-hydroxypropyl)ethylenediamine], in the assay with IL-2 (Interleukin-2), the inhibition at 10 µg/mL was 10.6% and the inhibition at 100 µg/mL was 41.3%. In assay [1], the “Inhibition of Squalene accumulation, (Percent of Vehicle Treated)” value is reported as 44.0% and the “Inhibition of Triglyceride accumulation, (Percent of Vehicle Treated)” value was determined as 2.65%. In the assay on facial skin pores (single application, subject responders), the “% Of Pore Size Reduction over Placebo” value is listed as 7.11%*. In addition, in the assay on facial skin pores, the “greater pore reduction response than the placebo alone” value is on record as 19.4%. Moreover, the “Mean +/− Std Dev of IL-1A Release” value in the assay on IL-1A (2 hours before UV (70 kJ/m^2), 24 hours after) turned out to be 357.3 ± 92.1 ng/mL. The inhibition at 0.5 % strength in the assay with IL-1A (Homo sapiens, 2 hours before UV, vs UV, Vehicle, read-out: Percent Inhibition of Skin Inflammation) came to 0%. In addition, the “Visual Contraction of Human Keratinocytes (reduction in cell area, Mean ± Std Dev)” value with Human keratinocytes (2 Min) is listed as 32.9% ±. The “Visual Contraction of Human Keratinocytes (reduction in cell area, Mean ± Std Dev)” value in the assay with Human keratinocytes (10 Min) is given as 37.9% ± 10.7%. Moreover, the “Visual Contraction of Human Keratinocytes (reduction in cell area, Mean ± Std Dev)” value in the assay with Human keratinocytes (20 Min) is given as 47.3% ± 12.7%.
